# From patent US9522920B2, “Bromodomain inhibitors and uses thereof” (Constellation Pharmaceuticals, Inc., priority 2010, dated 2016)
# Where two headings read alike, the source gives them in different places.
# Legend:
# BRD4(BD1) = target: T1, BRD4(BD1) (Homo sapiens, UniProt O60885); assay: BRD4 AlphaLisa binding assay (Alphascreen)
# T1 construct: His; made in house
# Experimental: Specifically, in a 384 well ProxiPlate BRD4(BD1) (30 nM final) was combined with peptide (200 nM final) in 40 mM HEPES (pH 7.0), 40 mM NaCl, 1 mM DTT, 0.01% (w/v) BSA, and 0.008% (w/v) Brij-35 either in the presence of DMSO (final 1.2% DMSO) or compound dilution series in DMSO. After 20 minute incubation at room temperature Alpha streptavidin donor beads and AlphaLisa anti-Flag acceptor beads were added to a final concentration of 10 ug/mL each. After three hours equilibration plates were read on an Envision instrument and IC50s calculated using a four parameter non-linear curve fit.
# IL-6 secretion = assay: Cell-based IL-6 quantification assay (ELISA, Mesoscale) in LPS-stimulated THP-1 cells; settings: read-out: IL6
# Experimental: 100,000 THP-1 cells were seeded in RPMI1640-10% FBS in 96-well plates. LPS (E. Coli Invitrogen) in RPMI-10% FBS at a final concentration of 4 μg/mL was added to the wells and the cells are then incubated in the presence of various concentrations of compounds for 16 h. Plates are spun ([…], 5 min), an aliquot of 25 uL supernatant is transferred in to an ELISA plate (Mesoscale technology, MSD) and the detection of IL-6 is performed using manufacturer's instructions. The amount of cells in each well is assessed using CellTiter-Glo® (Promega). The ratio of ELISA value/CellTiter-Glo value is used to calculate the percent of inhibition of IL-6 secretion.
# MYC mRNA [1] = assay: cMyc RNA quantification assay (QuantiGene) in MV4:11 cells; format: cell-based; settings: read-out: MYC-MV411
# Experimental: (§1) MV4:11 (AML) or Raji (Burkitt's lymphoma) cells were seeded in a 96-well plate and incubated in the presence of various concentrations of compounds for 4 h. Relative mRNA levels were quantitated by using QuantiGene 2.0 assay (Affymetrix) according to the manufacturer's recommendation. Signals were detected by using an Envision plate reader (Perkin-Elmer). Biological duplicates were averaged and normalized to vehicle (DMSO) control to calculate percent MYC mRNA levels.
# MYC mRNA [2] = assay: cMyc RNA quantification assay (QuantiGene) in Raji cells; format: cell-based; settings: 4 h
# Experimental: as §1
# [3] = Table 14, BRD4 AlphaLisa Binding Assay, read-out: Alpha screen
# [4] = Homo sapiens, THP-1, 16 h, Table 14, THP-1 cells, LPS, 16 h
# [5] = Homo sapiens, MV4-11, 4 h, Table 14, MV4:11 cells
# [6] = Homo sapiens, Table 7, Raji (Burkitt's lymphoma) cells
# [7] = Table 6, BRD4(BD1) 30 nM, H4-tetraacetyl peptide 200 nM, read-out: BRD4 Alphascreen IC50
# [8] = Homo sapiens, THP-1, 16 h, Table 7, THP-1 cells, LPS 4 μg/mL, 16 h, normalised to CellTiter-Glo
# [9] = Homo sapiens, Table 14, Raji cells
# [10] = Table 7, Raji (Burkitt's lymphoma) cells
# [11] = Table 7, THP-1 cells, LPS 4 μg/mL, 16 h, normalised to CellTiter-Glo
SMILES,IC50 (BRD4(BD1); [3]) [nM],IC50 (IL-6 secretion; [4]) [nM],IC50 (MYC mRNA [1]; [5]) [nM],IC50 (BRD4(BD1); [7]) [nM],also measured
"Cc1noc2c1-c1ccccc1C(c1ccc(Cl)cc1)=N[C@H]2CC(N)C(F)(F)F (mixture of isomers) [Compound 232, Mixture of (2S)-3-((4S)-6-(4-chlorophenyl)-1-methyl-4H-benzo[c]isoxazolo[4,5-e]azepin-4-yl)-1,1,1-trifluoropropan-2-amine and (2R)-3-((4S)-6-(4-chlorophenyl)-1-methyl-4H-benzo[c]isoxazolo[4,5-e]azepin-4-yl)-1,1,1-trifluoropropan-2-amine]",> 1000,> 1000,> 1000,,
"Cc1noc2c1-c1nc(Cl)ccc1C(c1ccc(Cl)cc1)=NC2 [Compound 227, 2-Chloro-5-(4-chlorophenyl)-10-methyl-7H-isoxazolo[5,4-c]pyrido[2,3-e]azepine]",> 1000,> 1000,> 1000,,
Cc1noc2c1-c1ccccc1C(c1ccc(C3(O)CC3)cc1)=N[C@H]2CC(N)=O [Compound 226],< 500,< 500,< 500,,
Cc1noc2c1-c1ccc(Cl)cc1C(c1ccc(F)cc1)=N[C@H]2CC(N)=O [Compound 211],< 500,< 500,500 to 1000,,
"CNc1ccc2c(n1)-c1c(C)noc1CN=C2c1ccc(Cl)cc1 [Compound 221, 5-(4-Chlorophenyl)-N,10-dimethyl-7H-isoxazolo[5,4-c]pyrido[2,3-e]azepin-2-amine]",> 1000,> 1000,> 1000,,
Cc1noc2c1-c1ccc(-c3ccc(C(=O)O)cc3)cc1C(c1ccc(F)cc1)=N[C@H]2CC(N)=O [Compound 234],< 500,500 to 1000,500 to 1000,,
"Cc1noc2c1-c1ccc(N3CCCC3)nc1C(c1ccc(Cl)cc1)=NC2 [Compound 247, 6-(4-Chlorophenyl)-1-methyl-8-(pyrrolidin-1-yl)-4H-isoxazolo[5,4-c]pyrido[3,2-e]azepine]",< 500,< 500,500 to 1000,,
Cc1noc2c1-c1sc(C)c(C)c1C(c1ccc(C(C)(C)O)cc1)=NC2CC(N)=O (stereo not shown) [Compound 236],< 500,< 500,< 500,,
Cc1noc2c1-c1ccc(-c3ccc(N)nc3)cc1C(c1ccc(F)cc1)=N[C@H]2C [Compound 231],< 500,< 500,< 500,,
"Cc1noc2c1-c1ccnc(N)c1C(c1ccc(Cl)cc1)=N[C@H]2CC(N)=O [Compound 222, 2-((4S)-7-Amino-6-(4-chlorophenyl)-1-methyl-4H-isoxazolo[5,4-c]pyrido[4,3-e]azepin-4-yl)acetamide]",< 500,< 500,< 500,,
"CNc1ccc2c(n1)C(c1ccc(Cl)cc1)=NCc1onc(C)c1-2 [Compound 241, 6-(4-Chlorophenyl)-N,1-dimethyl-4H-isoxazolo[5,4-c]pyrido[3,2-e]azepin-8-amine]",< 500,< 500,< 500,,
"Cc1noc2c1-c1ccc(Cl)cc1C(c1ccc(F)cc1)=NC21CC1 [Compound 250, 8-Chloro-6-(4-fluorophenyl)-1-methylspiro[benzo[c]isoxazolo[4,5-e]azepine-4,1′-cyclopropane]]",,> 1000,> 1000,,
"CCOC(=O)NC1N=C(c2ccc(Cl)cc2)c2ccccc2-c2c(C)noc21 (single isomer, unassigned) [Compound 254, Ethyl (6-(4-chlorophenyl)-1-methyl-4H-benzo[c]isoxazolo[4,5-e]azepin-4-yl)carbamate]",500 to 1000,,,,"IC50 (IL-6 secretion; Table 14, THP-1 cells, LPS, 16 h): > 1000 nM; IC50 (MYC mRNA [1]; Table 14, MV4:11 cells, 4 h): > 1000 nM"
"Cc1noc2c1-c1cnc(Cl)cc1C(c1ccc(Cl)cc1)=NC2 [Compound 256, 8-Chloro-6-(4-chlorophenyl)-1-methyl-4H-isoxazolo[5,4-c]pyrido[3,4-e]azepine]",> 1000,> 1000,> 1000,,
"Cc1noc2c1-c1ccccc1C(c1ccc(Cl)cc1)=NC2C#N (stereo not shown) [Compound 215, 6-(4-chlorophenyl)-1-methyl-4H-benzo[c]isoxazolo[4,5-e]azepine-4-carbonitrile]",> 1000,> 1000,> 1000,,
Cc1noc2c1-c1ccccc1C(c1ccc(C(C)(C)O)cc1)=N[C@H]2CC(N)=O [Compound 235],< 500,< 500,< 500,,
Cc1noc2c1-c1ccccc1C(c1ccc(Cl)cc1)=N[C@H]2CC(=O)NCCO [Compound 214],< 500,< 500,< 500,,

SMILES,IC50 (BRD4(BD1); [3]) [nM],IC50 (IL-6 secretion; [4]) [nM],IC50 (MYC mRNA [1]; [5]) [nM],IC50 (BRD4(BD1); [7]) [nM],also measured
Cc1noc2c1-c1ccc(-c3ccc(N)nc3)cc1C(c1ccc(Cl)cc1)=N[C@H]2CC(N)=O [Compound 213],< 500,< 500,< 500,,
"Cc1noc2c1-c1ccc(-c3ccc(N)nc3)cc1C(c1ccc(F)cc1)=NC21CC1 [Compound 251, 5-(6-(4-Fluorophenyl)-1-methylspiro[benzo[c]isoxazolo[4,5-e]azepine-4,1′-cyclopropan]-8-yl)pyridin-2-amine]",,< 500,< 500,,
"CCNC(=O)C[C@@H]1N=C(c2ccc(Cl)cc2)c2cc(OC)ccc2-c2c(C)noc21 [Compound 160, 2-((4S)-6-(4-chlorophenyl)-8-methoxy-1-methyl-4H-benzo[c]isoxazolo[4,5-e]azepin-4-yl)-N-ethylacetamide]",,,,< 500,IC50 (MYC mRNA [2]; [6]): < 500 nM; IC50 (IL-6 secretion; [8]): < 500 nM
"Cc1noc2c1-c1sc(C)c(C)c1C(Oc1ccccc1)=N[C@H]2CC(N)=O [Compound 186, 2-((6S)-2,3,9-trimethyl-4-phenoxy-6H-isoxazolo[5,4-c]thieno[2,3-e]azepin-6-yl)acetamide]",,,,500 to 1000,"IC50 (MYC mRNA [2]; [6]): > 1000 nM; IC50 (IL-6 secretion; Homo sapiens, THP-1, 16 h): 500 to 1000 nM"
CC(=O)Nc1ccc(C2=NC(CC(N)=O)c3onc(C)c3-c3sc(C)c(C)c32)cc1 (stereo not shown) [Compound 118],,,,< 500,IC50 (MYC mRNA [2]; [6]): < 500 nM; IC50 (IL-6 secretion; [8]): < 500 nM
Cc1noc2c1-c1sc(C)c(C)c1C(c1ccc(=O)n(C)c1)=NC2CC(N)=O (stereo not shown) [Compound 120],,,,< 500,IC50 (MYC mRNA [2]; [6]): 500 to 1000 nM; IC50 (IL-6 secretion; [8]): < 500 nM
Cc1noc2c1-c1ccccc1C(c1ccc(Cl)cc1)=N[C@H]2CC(=O)NC(C)(C)C [Compound 205],< 500,< 500,,,IC50 (MYC mRNA [2]; [9]): > 1000 nM
"CCNC(=O)C[C@@H]1N=C(c2ccc(Cl)cc2)c2ccccc2-c2c1noc2C [Compound 163, 2-((4S)-6-(4-chlorophenyl)-1-methyl-4H-benzo[c]isoxazolo[4,3-e]azepin-4-yl)-N-ethylacetamide]",,,,< 500,IC50 (MYC mRNA [2]; [6]): > 1000 nM; IC50 (IL-6 secretion; [8]): < 500 nM
Cc1noc2c1-c1sc(C)c(C)c1C(C1CCCCC1)=NC2CC(N)=O (stereo not shown) [Compound 126],,,,< 500,IC50 (MYC mRNA [2]; [6]): > 1000 nM; IC50 (IL-6 secretion; [8]): < 500 nM
COc1ccc(C2=N[C@@H](CC(N)=O)c3onc(C)c3-c3ccccc32)cc1 [Compound 146],,,,< 500,IC50 (MYC mRNA [2]; [6]): < 500 nM; IC50 (IL-6 secretion; [8]): < 500 nM
Cc1noc2c1-c1ccccc1C(c1ccc(F)cn1)=N[C@H]2CC(N)=O [Compound 196],> 1000,500 to 1000,,,IC50 (MYC mRNA [2]; [9]): > 1000 nM
COCCNC(=O)C[C@@H]1N=C(c2ccc(C#N)cc2)c2ccccc2-c2c(C)noc21 [Compound 150],,,,< 500,IC50 (MYC mRNA [2]; [10]): < 500 nM; IC50 (IL-6 secretion; [11]): < 500 nM
Cc1noc2c1-c1sc(C)c(C)c1C(c1ccc(C#N)cc1)=NC2CC(N)=O (stereo not shown) [Compound 115],,,,< 500,IC50 (MYC mRNA [2]; [6]): < 500 nM; IC50 (IL-6 secretion; [8]): < 500 nM
Cc1noc2c1-c1ccccc1C(c1ccc(Cl)cc1)=N[C@H]2CC(=O)NCCF [Compound 199],< 500,< 500,,,IC50 (MYC mRNA [2]; [9]): < 500 nM
Cc1noc2c1-c1cccc(Cl)c1C(c1ccc(F)cc1)=N[C@H]2CC(N)=O [Compound 138],,,,< 500,IC50 (MYC mRNA [2]; [10]): < 500 nM; IC50 (IL-6 secretion; [11]): < 500 nM
CCCC1=NC(CC(N)=O)c2onc(C)c2-c2sc(C)c(C)c21 (stereo not shown) [Compound 124],,,,< 500,IC50 (MYC mRNA [2]; [6]): > 1000 nM; IC50 (IL-6 secretion; [8]): 500 to 1000 nM
Cc1cccc2c1C(c1ccc(C(N)=O)cc1)=N[C@@H](CC(N)=O)c1onc(C)c1-2 [Compound 134],,,,< 500,IC50 (MYC mRNA [2]; [10]): 500 to 1000 nM; IC50 (IL-6 secretion; [11]): < 500 nM
